Data: US9783511B2, “Carbamate benzoxazine propionic acids and acid derivatives for modulation of RORgamma activity and the treatment of disease” (Merck Sharp & Dohme Corp., priority 2013, dated 2017)

Each compound was assayed against human RORgammaT-Ligand Binding Domain (LBD) (Homo sapiens (Human), UniProt P51449) (assay: RORγ-Ligand Binding Domain TR-FRET Assay (co-activator peptide SRC1_2 recruitment)). Conditions: HIS-tagged RORγ-LBD 3 nM, biotinylated SRC1 LXXLL peptide 100 nM, incubated overnight at 4° C., 665 nm/615 nm ratio.
Type: biochemical
Summary of the method: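 E. coli-expressed, Ni2+-purified HIS-tagged human RORγ-LBD at 3 nM final in 50 mM Tris pH 7.0, 50 mM KCl, 1 mM EDTA, 0.1 mM DTT, 100 μg/mL delipidated BSA. TR-FRET read-out of SRC1_2 co-activator peptide recruitment; compounds dispensed acoustically.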

Chain of human RORgammaT-Ligand Binding Domain (LBD) (P51449 269-508): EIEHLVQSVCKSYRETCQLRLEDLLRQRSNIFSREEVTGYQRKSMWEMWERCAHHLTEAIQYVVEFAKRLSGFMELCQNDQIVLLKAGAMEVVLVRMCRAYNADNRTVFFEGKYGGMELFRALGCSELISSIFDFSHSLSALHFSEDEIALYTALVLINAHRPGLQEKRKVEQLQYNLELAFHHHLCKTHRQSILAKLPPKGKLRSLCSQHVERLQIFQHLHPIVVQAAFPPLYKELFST

| SMILES | IC50 |
| --- | --- |
| COc1cc(S(=O)(=O)N2C[C@H]([C@H]3C[C@@H]3C(=O)O)Oc3ccc(NC(=O)OC(C)(C)C(F)(F)F)cc32)ccc1F (single isomer, unassigned) [Example 22i, (1R,2S or 1R,2R or 1S,2S or 1S,2R)-2-((S)-4-((4-fluoro-3-methoxyphenyl)sulfonyl)-6-((((1,1,1-trifluoro-2-methylpropan-2-yl)oxy)carbonyl)amino)-3,4-dihydro-2H-benzo[b][1,4]oxazin-2-yl)cylcopropanecarboxylic acid] | 0.0224 µM |
| COc1cc(S(=O)(=O)N2C[C@H](CCC(=O)O)Oc3ccc(NC(=O)O[C@@H](C)C(C)(C)C)cc32)ccc1F (single isomer, unassigned) [Example 24C, 3-{(2S)-4-[(4-fluoro-3-methoxyphenyl)sulfonyl]-6-[({[(1S or 1R)-1,2,2-trimethylpropyl]oxy}carbonyl)amino]-3,4-dihydro-2H-1,4-benzoxazin-2-yl}propanoic acid] | 0.0038 µM |
| COc1cc(S(=O)(=O)N2C[C@H](CCC(=O)O)Oc3ccc(NC(=O)O[C@H](C)C(C)(C)C)cc32)ccc1F (single isomer, unassigned) [Example 24D, 3-{(2S)-4-[(4-fluoro-3-methoxyphenyl)sulfonyl]-6-[({[(1S or 1R)-1,2,2-trimethylpropyl]oxy}cxarbonyl)amino]-3,4-dihydro-2H-1,4-benzoxazin-2-yl}propanoic acid] | 0.00373 µM |
| CCn1cc(S(=O)(=O)N2C[C@H](CCC(=O)O)Oc3ccc(NC(=O)OC(C)(C)C(F)(F)F)cc32)c(OCCO)n1 (stereo in doubt) [Example 6CA, 3-(4-{[1-ethyl-3-(2-hydroxyethoxy)-1H-pyrazol-4-yl]sulfonyl}-6-{[(2,2,2-trifluoro-1,1-dimethylethoxy)carbonyl]amino}-3,4-dihydro-2H-1,4-benzoxazin-2-yl)propanoic acid] | 0.0114 µM |
| CC(C)(OC(=O)Nc1ccc2c(c1)N(S(=O)(=O)c1cccc(Br)c1)C[C@H](CCC(=O)O)O2)C(F)(F)F [Example 6AA, (S)-3-(4-((3-bromophenyl)sulfonyl)-6-((((1,1,1-trifluoro-2-methylpropan-2-yl)oxy)carbonyl)amino)-3,4-dihydro-2H-benzo[b][1,4]oxazin-2-yl)propanoic acid] | 0.006 µM |
| CCOc1nn(C(F)F)cc1S(=O)(=O)N1C[C@H](CCC(=O)O)Oc2ccc(NC(=O)OC(C)(C)C(F)(F)F)cc21 [Example 6AB, (S)-3-(4-((1-(difluoromethyl)-3-ethoxy-1H-pyrazol-4-yl)sulfonyl)-6-((((1,1,1-trifluoro-2-methylpropan-2-yl)oxy)carbonyl)amino)-3,4-dihydro-2H-benzo[b][1,4]oxazin-2-yl)propanoic acid] | 0.009 µM |
| CC(C)(OC(=O)Nc1ccc2c(c1)N(S(=O)(=O)c1cccc(C3CC3)c1)C[C@H](CCC(=O)O)O2)C(F)(F)F [Example 6AC, (S)-3-(4-((3-cyclopropylphenyl)sulfonyl)-6-((((1,1,1-trifluoro-2-methylpropan-2-yl)oxy)carbonyl)amino)-3,4-dihydro-2H-benzo[b][1,4]oxazin-2-yl)propanoic acid] | 0.008 µM |
| CC(C)(OC(=O)Nc1ccc2c(c1)N(S(=O)(=O)c1ccc3c(c1)CCO3)C[C@H](CCC(=O)O)O2)C(F)(F)F [Example 6AE, (S)-3-(4-((2,3-dihydrobenzofuran-5-yl)sulfonyl)-6-((((1,1,1-trifluoro-2-methylpropan-2-yl)oxy)carbonyl)amino)-3,4-dihydro-2H-benzo[b][1,4]oxazin-2-yl)propanoic acid] | 0.0124 µM |
| CC(C)(OC(=O)Nc1ccc2c(c1)N(S(=O)(=O)c1c(Cl)nc3sccn13)C[C@H](CCC(=O)O)O2)C(F)(F)F [Example 6AF, (S)-5-((2-(2-carboxyethyl)-6-((((1,1,1-trifluoro-2-methylpropan-2-yl)oxy)carbonyl)amino)-2H-benzo[b][1,4]oxazin-4(3H)-yl)sulfonyl)-6-chloroimidazo[2,1-b]thiazole] | 0.0062 µM |
| CC(C)(OC(=O)Nc1ccc2c(c1)N(S(=O)(=O)c1ccc(Cl)c(Cl)c1)C[C@H](CCC(=O)O)O2)C(F)(F)F [Example 6AH, (S)-3-(4-((3,4-dichlorophenyl)sulfonyl)-6-((((1,1,1-trifluoro-2-methylpropan-2-yl)oxy)carbonyl)amino)-3,4-dihydro-2H-benzo[b][1,4]oxazin-2-yl)propanoic acid] | 0.00884 µM |
| Cc1ccc(S(=O)(=O)N2C[C@H](CCC(=O)O)Oc3ccc(NC(=O)OC(C)(C)C(F)(F)F)cc32)cc1Cl [Example 6AJ, (S)-3-(4-((3-chloro-4-methylphenyl)sulfonyl)-6-((((1,1,1-trifluoro-2-methylpropan-2-yl)oxy)carbonyl)amino)-3,4-dihydro-2H-benzo[b][1,4]oxazin-2-yl)propanoic acid] | 0.014 µM |
| Cc1c(Cl)cc(F)cc1S(=O)(=O)N1C[C@H](CCC(=O)O)Oc2ccc(NC(=O)OC(C)(C)C(F)(F)F)cc21 [Example 6AK, (S)-3-(4-((3-chloro-5-fluoro-2-methylphenyl)sulfonyl)-6-((((1,1,1-trifluoro-2-methylpropan-2-yl)oxy)carbonyl)amino)-3,4-dihydro-2H-benzo[b][1,4]oxazin-2-yl)propanoic acid] | 0.0111 µM |
| CC(C)(OC(=O)Nc1ccc2c(c1)N(S(=O)(=O)c1ccc(Cl)cn1)C[C@H](CCC(=O)O)O2)C(F)(F)F [Example 6AL, (S)-2-((2-(2-carboxyethyl)-6-((((1,1,1-trifluoro-2-methylpropan-2-yl)oxy)carbonyl)amino)-2H-benzo[b][1,4]oxazin-4(3H)-yl)sulfonyl)-5-chloropyridine] | 0.015 µM |
| COc1cc(C)ccc1S(=O)(=O)N1C[C@H](CCC(=O)O)Oc2ccc(NC(=O)OC(C)(C)C(F)(F)F)cc21 [Example 6AQ, (S)-3-(4-((2-methoxy-4-methylphenyl)sulfonyl)-6-((((1,1,1-trifluoro-2-methylpropan-2-yl)oxy)carbonyl)amino)-3,4-dihydro-2H-benzo[b][1,4]oxazin-2-yl)propanoic acid] | 0.0171 µM |
| COc1cc(S(=O)(=O)N2C[C@H](CCC(=O)O)Oc3ccc(NC(=O)OC(C)(C)C(F)(F)F)cc32)ccn1 [Example 6AV, (S)-4-((2-(2-carboxyethyl)-6-((((1,1,1-trifluoro-2-methylpropan-2-yl)oxy)carbonyl)amino)-2H-benzo[b][1,4]oxazin-4(3H)-yl)sulfonyl)-2-methoxypyridine] | 0.0241 µM |
| Cc1cc(S(=O)(=O)N2C[C@H](CCC(=O)O)Oc3ccc(NC(=O)OC(C)(C)C(F)(F)F)cc32)c(F)cc1F [Example 6AW, (S)-3-(4-((2,4-difluoro-5-methylphenyl)sulfonyl)-6-((((1,1,1-trifluoro-2-methylpropan-2-yl)oxy)carbonyl)amino)-3,4-dihydro-2H-benzo[b][1,4]oxazin-2-yl)propanoic acid] | 0.00771 µM |
| Cc1nn(C(F)F)cc1S(=O)(=O)N1C[C@H](CCC(=O)O)Oc2ccc(NC(=O)OC(C)(C)C(F)(F)F)cc21 [Example 6AX, (S)-4-((2-(2-carboxyethyl)-6-((((1,1,1-trifluoro-2-methylpropan-2-yl)oxy)carbonyl)amino)-2H-benzo[b][1,4]oxazin-4(3H)-yl)sulfonyl)-1-(difluoromethyl)-3-methyl-1H-pyrazole] | 0.00992 µM |
| Cc1cc(S(=O)(=O)N2C[C@H](CCC(=O)O)Oc3ccc(NC(=O)OC(C)(C)C(F)(F)F)cc32)c(Cl)cc1F [Example 6BA, (S)-3-(4-((2-chloro-4-fluoro-5-methylphenyl)sulfonyl)-6-((((1,1,1-trifluoro-2-methylpropan-2-yl)oxy)carbonyl)amino)-3,4-dihydro-2H-benzo[b][1,4]oxazin-2-yl)propanoic acid] | 0.00731 µM |
| CCn1cc(S(=O)(=O)N2C[C@H](CCC(=O)O)Oc3ccc(NC(=O)OC(C)(C)C(F)(F)F)cc32)c(OC(F)F)n1 [Example 6BC, (S)-3-(4-((3-(difluoromethoxy)-1-ethyl-1H-pyrazol-4-yl)sulfonyl)-6-((((1,1,1-trifluoro-2-methylpropan-2-yl)oxy)carbonyl)amino)-3,4-dihydro-2H-benzo[b][1,4]oxazin-2-yl)propanoic acid] | 0.0119 µM |
| CC(C)(OC(=O)Nc1ccc2c(c1)N(S(=O)(=O)c1cccc(S(F)(F)(F)(F)F)c1)C[C@H](CCC(=O)O)O2)C(F)(F)F [Example 6BD, 3-[(2S)-4-{[3-(pentafluoro-lambda~6~- sulfanyl)phenyl]sulfonyl}-6-{[(2,2,2-trifluoro-1,1-dimethylethoxy)carbonyl]amino}-3,4-dihydro-2H-1,4-benzoxazin-2-yl]propanoic acid] | 0.0148 µM |
| CC(C)(OC(=O)Nc1ccc2c(c1)N(S(=O)(=O)c1cncc(Br)c1)C[C@H](CCC(=O)O)O2)C(F)(F)F [Example 6BU, 3-[(2S)-4-[(5-bromopyridin-3-yl)sulfonyl]-6-{[(2,2,2-trifluoro-1,1-dimethylethoxy)carbonyl]amino}-3,4-dihydro-2H-1,4-benzoxazin-2-yl]propanoic acid] | 0.0109 µM |
| CC(C)(OC(=O)Nc1ccc2c(c1)N(S(=O)(=O)c1cncc(C3CC3)c1)C[C@H](CCC(=O)O)O2)C(F)(F)F [Example 6BV, 3-[(2S)-4-[(5-cyclopropylpyridin-3-yl)sulfonyl]-6-{[(2,2,2-trifluoro-1,1-dimethylethoxy)carbonyl]amino}-3,4-dihydro-2H-1,4-benzoxazin-2-yl]propanoic acid] | 0.00884 µM |
| Cc1cncc(S(=O)(=O)N2C[C@H](CCC(=O)O)Oc3ccc(NC(=O)OC(C)(C)C(F)(F)F)cc32)c1 [Example 6BX, 3-[(2S)-4-[(5-methylpyridin-3-yl)sulfonyl]-6-{[(2,2,2-trifluoro-1,1-dimethylethoxy)carbonyl]amino}-3,4-dihydro-2H-1,4-benzoxazin-2-yl]propanoic acid] | 0.0324 µM |
